Paper PMC4367188 (ACS Chemical Neuroscience, 2015)
Entries after “also recorded” stand apart in the source; their conditions may differ.

What was measured:
[1] = system: Sodium Channel, Site 2; assay: Lead Profiling Screen radioligand binding; settings: 10 μM ML352
[2] = biological target: T1, WT hCHT (Homo sapiens, UniProt Q9GZV3); assay: cell-surface biotinylation, CHT surface expression in WT hCHT HEK 293 cells; format: cell-based; settings: 5 μM, 15 min incubation
T1 sequence (Q9GZV3 1-580): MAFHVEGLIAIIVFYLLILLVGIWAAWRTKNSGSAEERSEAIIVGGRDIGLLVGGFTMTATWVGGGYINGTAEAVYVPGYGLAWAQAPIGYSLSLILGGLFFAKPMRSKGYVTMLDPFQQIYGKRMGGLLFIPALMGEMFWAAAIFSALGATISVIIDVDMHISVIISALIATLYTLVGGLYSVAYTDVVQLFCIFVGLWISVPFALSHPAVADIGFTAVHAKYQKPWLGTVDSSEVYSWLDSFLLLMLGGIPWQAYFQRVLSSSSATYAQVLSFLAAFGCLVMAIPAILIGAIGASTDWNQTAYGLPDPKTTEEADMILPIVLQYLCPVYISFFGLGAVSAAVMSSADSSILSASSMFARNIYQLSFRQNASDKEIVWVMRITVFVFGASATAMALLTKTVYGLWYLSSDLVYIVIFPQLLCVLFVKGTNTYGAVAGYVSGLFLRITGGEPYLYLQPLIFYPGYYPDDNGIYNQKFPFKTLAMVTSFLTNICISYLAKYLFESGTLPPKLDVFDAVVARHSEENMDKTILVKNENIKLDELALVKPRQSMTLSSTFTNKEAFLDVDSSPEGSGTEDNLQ

[3] = biological target: GABAB1A (Homo sapiens, UniProt Q9UBS5); assay: Lead Profiling Screen radioligand binding
[4] = biological target: Bradykinin B1 (Homo sapiens, UniProt P46663); assay: Lead Profiling Screen radioligand binding
[5] = biological target: Endothelin ETA (Homo sapiens, UniProt P25101); assay: Lead Profiling Screen radioligand binding
[6] = intrinsic clearance in hepatic microsomes; format: in vitro ADME; settings: rat; predicted hepatic clearance from microsomal CLint
[7] = system: Calcium Channel L-Type, Benzothiazepine; assay: Lead Profiling Screen radioligand binding; settings: 10 μM ML352
[8] = biological target: Interleukin IL-1 (Mus musculus, UniProt P13504); assay: Lead Profiling Screen radioligand binding
[9] = intrinsic clearance in hepatic microsomes; format: in vitro ADME; settings: human; predicted hepatic clearance from microsomal CLint
[10] = biological target: Sertonin (5-Hydroxytrptamine) 5-HT2B (Homo sapiens, UniProt P41595); assay: Lead Profiling Screen radioligand binding
[11] = biological target: Melatonin MT1 (Homo sapiens, UniProt P48039); assay: Lead Profiling Screen radioligand binding
[12] = system: Imidazoline I2, Central; assay: Lead Profiling Screen radioligand binding; settings: 10 μM ML352
[13] = biological target: Transporter, Serotonin (5-hydroxytryptamine) (SERT) (Homo sapiens, UniProt P31645); assay: Lead Profiling Screen radioligand binding
[14] = biological target: dopamine transporter (DAT) (Homo sapiens, UniProt Q01959); assay: [3H]DA uptake in HEK293 hDAT cells; format: cell-based; settings: transfected HEK 293 cells
[15] = biological target: Epidermal Growth Factor (EGF) (Homo sapiens, UniProt P00533); assay: Lead Profiling Screen radioligand binding
[16] = biological target: hERG potassium channel (Homo sapiens, UniProt Q12809); assay: Lead Profiling Screen radioligand binding
[17] = biological target: Adrenergic α1D (Homo sapiens, UniProt P25100); assay: Lead Profiling Screen radioligand binding
[18] = system: Glutamate, NMDA, Agonism; assay: Lead Profiling Screen radioligand binding; settings: 10 μM ML352
[19] = biological target: serotonin transporter (SERT) (Homo sapiens, UniProt P31645); assay: [3H]5-HT uptake in HEK293 hSERT cells; format: cell-based; settings: transfected HEK 293 cells
[20] = biological target: AChE (Mus musculus, UniProt P21836); assay: AChE activity in mouse forebrain extracts; format: biochemical; settings: concentrations well above the CHT Ki
[21] = system: Phorbol Ester; assay: Lead Profiling Screen radioligand binding; settings: 10 μM ML352
[22] = biological target: Adrenergic α1A (Rattus norvegicus, UniProt P43140); assay: Lead Profiling Screen radioligand binding
[23] = biological target: Estrogen Erα (Homo sapiens, UniProt P03372); assay: Lead Profiling Screen radioligand binding
[24] = system: Glutamate, NMDA, Phancyclidine; assay: Lead Profiling Screen radioligand binding; settings: 10 μM ML352
[25] = system: GABAA, Muscimol, Central; assay: Lead Profiling Screen radioligand binding; settings: 10 μM ML352
[26] = system: Glutamate, NMDA, Glycine; assay: Lead Profiling Screen radioligand binding; settings: 10 μM ML352
[27] = biological target: P450 2D6 (Homo sapiens, UniProt P10635); assay: cytochrome P450 inhibition
[28] = biological target: Adenosine A2A (Homo sapiens, UniProt P29274); assay: Lead Profiling Screen radioligand binding
[29] = system: Rolipram; assay: Lead Profiling Screen radioligand binding; settings: 10 μM ML352
[30] = biological target: Sertonin (5-Hydroxytrptamine) 5-HT3 (Homo sapiens, UniProt P46098); assay: Lead Profiling Screen radioligand binding
[31] = biological target: Adrenergic α1B (Rattus norvegicus, UniProt P15823); assay: Lead Profiling Screen radioligand binding
[32] = biological target: Adrenergic α2A (Homo sapiens, UniProt P08913); assay: Lead Profiling Screen radioligand binding
[33] = system: GABAA, Flunitrazepam, Central; assay: Lead Profiling Screen radioligand binding; settings: 10 μM ML352
[34] = biological target: Bradykinin B2 (Homo sapiens, UniProt P30411); assay: Lead Profiling Screen radioligand binding
[35] = biological target: norepinephrine transporter (NET) (Homo sapiens, UniProt P23975); assay: [3H]NE uptake in HEK293 hNET cells; format: cell-based; settings: transfected HEK 293 cells
[36] = biological target: Muscarinic M2 (Homo sapiens, UniProt P08172); assay: Lead Profiling Screen radioligand binding
[37] = biological target: P450 1A2 (Homo sapiens, UniProt P05177); assay: cytochrome P450 inhibition; format: in vitro ADME
[38] = biological target: Cannabinoid CB1 (Homo sapiens, UniProt P21554); assay: Lead Profiling Screen radioligand binding
Cannabinoid CB1, sequence (P21554 whole entry): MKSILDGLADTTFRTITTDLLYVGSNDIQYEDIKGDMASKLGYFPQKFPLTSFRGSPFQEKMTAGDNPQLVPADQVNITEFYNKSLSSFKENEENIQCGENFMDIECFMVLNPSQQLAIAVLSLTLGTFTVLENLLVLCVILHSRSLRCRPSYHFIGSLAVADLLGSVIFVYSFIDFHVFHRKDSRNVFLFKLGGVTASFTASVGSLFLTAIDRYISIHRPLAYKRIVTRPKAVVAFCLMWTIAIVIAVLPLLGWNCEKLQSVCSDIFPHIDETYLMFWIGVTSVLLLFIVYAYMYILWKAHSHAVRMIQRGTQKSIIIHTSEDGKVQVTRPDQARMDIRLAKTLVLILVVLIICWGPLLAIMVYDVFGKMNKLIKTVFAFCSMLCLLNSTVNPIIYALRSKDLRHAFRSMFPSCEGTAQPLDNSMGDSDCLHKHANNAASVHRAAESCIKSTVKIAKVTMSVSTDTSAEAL

AChE, sequence (P21836 32-614): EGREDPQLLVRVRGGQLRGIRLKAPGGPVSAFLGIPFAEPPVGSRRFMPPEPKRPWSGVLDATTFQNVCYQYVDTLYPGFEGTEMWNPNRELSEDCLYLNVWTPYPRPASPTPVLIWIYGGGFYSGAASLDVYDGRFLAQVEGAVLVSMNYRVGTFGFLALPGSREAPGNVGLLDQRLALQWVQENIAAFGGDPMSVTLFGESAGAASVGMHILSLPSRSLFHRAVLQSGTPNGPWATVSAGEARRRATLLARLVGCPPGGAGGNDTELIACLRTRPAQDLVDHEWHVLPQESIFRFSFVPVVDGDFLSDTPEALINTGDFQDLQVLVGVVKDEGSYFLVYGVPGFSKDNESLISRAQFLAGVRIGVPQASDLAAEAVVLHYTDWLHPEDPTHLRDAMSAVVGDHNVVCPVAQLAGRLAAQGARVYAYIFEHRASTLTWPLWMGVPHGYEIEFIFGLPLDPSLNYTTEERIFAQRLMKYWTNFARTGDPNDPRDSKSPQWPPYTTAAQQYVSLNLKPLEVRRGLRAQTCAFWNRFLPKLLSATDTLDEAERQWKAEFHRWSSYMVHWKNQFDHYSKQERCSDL
Sertonin (5-Hydroxytrptamine) 5-HT3, sequence (P46098 24-478): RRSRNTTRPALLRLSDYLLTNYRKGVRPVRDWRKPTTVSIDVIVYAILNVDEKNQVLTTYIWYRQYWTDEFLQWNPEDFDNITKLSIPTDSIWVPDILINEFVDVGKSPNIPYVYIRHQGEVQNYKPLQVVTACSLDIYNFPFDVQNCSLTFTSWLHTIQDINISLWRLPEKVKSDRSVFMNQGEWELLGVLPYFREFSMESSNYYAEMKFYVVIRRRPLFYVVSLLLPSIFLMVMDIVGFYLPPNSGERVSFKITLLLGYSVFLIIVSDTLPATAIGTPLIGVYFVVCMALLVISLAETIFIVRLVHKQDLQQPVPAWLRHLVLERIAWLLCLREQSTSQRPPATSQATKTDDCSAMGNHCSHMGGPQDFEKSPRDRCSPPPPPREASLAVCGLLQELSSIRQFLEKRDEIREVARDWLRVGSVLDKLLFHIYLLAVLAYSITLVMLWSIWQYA
Endothelin ETA, sequence (P25101 21-427): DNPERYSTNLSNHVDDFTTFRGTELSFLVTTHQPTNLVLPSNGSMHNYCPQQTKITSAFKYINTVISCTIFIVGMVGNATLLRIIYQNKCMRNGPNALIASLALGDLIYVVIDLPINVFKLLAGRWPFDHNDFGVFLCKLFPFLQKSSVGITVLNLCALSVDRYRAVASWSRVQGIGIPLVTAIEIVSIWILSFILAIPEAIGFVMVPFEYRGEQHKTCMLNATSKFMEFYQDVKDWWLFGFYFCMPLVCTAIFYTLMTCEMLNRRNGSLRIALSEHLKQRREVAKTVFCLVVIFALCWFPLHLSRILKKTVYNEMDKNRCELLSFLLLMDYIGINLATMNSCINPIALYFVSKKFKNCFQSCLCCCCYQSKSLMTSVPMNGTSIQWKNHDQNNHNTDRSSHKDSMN
Interleukin IL-1, sequence (P13504 20-576): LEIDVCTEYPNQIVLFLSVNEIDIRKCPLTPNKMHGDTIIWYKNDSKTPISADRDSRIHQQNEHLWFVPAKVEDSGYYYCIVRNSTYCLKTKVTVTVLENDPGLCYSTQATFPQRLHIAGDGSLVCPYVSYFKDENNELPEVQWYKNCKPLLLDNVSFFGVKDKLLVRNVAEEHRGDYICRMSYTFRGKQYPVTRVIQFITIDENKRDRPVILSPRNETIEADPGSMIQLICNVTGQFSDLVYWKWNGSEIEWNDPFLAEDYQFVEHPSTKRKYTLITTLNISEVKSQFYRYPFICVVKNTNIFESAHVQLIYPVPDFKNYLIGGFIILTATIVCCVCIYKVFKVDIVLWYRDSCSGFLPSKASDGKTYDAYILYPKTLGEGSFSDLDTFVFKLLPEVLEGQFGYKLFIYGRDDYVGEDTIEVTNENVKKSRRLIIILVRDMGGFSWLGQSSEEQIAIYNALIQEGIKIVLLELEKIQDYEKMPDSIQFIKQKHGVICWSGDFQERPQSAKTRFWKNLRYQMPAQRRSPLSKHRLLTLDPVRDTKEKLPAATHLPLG
Adrenergic α1D, sequence (P25100 whole entry): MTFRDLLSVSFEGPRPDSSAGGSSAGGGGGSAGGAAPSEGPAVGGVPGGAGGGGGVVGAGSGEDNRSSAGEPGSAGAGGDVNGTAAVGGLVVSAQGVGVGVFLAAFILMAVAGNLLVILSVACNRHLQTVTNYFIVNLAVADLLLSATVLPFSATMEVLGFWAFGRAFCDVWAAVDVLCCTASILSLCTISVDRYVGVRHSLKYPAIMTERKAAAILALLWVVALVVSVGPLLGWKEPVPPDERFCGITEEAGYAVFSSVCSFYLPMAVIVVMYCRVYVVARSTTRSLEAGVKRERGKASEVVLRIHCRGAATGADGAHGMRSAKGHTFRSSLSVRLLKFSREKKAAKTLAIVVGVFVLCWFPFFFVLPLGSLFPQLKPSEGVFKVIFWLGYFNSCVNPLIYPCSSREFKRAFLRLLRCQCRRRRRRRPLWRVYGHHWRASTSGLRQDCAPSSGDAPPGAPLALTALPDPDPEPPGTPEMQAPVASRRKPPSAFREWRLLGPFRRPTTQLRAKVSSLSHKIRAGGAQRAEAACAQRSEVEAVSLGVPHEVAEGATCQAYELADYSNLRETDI
Adenosine A2A, sequence (P29274 whole entry): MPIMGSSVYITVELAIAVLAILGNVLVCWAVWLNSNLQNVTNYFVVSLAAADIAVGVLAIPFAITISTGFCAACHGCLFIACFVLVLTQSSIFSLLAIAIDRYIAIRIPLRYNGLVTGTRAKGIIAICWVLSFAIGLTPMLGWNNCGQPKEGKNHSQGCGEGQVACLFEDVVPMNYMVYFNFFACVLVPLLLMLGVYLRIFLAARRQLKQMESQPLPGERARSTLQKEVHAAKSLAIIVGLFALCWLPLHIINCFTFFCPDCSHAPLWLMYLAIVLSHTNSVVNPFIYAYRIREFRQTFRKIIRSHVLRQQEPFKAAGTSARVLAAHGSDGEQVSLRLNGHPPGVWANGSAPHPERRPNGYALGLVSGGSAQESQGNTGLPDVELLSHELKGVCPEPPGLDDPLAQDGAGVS
dopamine transporter (DAT), sequence (Q01959 whole entry): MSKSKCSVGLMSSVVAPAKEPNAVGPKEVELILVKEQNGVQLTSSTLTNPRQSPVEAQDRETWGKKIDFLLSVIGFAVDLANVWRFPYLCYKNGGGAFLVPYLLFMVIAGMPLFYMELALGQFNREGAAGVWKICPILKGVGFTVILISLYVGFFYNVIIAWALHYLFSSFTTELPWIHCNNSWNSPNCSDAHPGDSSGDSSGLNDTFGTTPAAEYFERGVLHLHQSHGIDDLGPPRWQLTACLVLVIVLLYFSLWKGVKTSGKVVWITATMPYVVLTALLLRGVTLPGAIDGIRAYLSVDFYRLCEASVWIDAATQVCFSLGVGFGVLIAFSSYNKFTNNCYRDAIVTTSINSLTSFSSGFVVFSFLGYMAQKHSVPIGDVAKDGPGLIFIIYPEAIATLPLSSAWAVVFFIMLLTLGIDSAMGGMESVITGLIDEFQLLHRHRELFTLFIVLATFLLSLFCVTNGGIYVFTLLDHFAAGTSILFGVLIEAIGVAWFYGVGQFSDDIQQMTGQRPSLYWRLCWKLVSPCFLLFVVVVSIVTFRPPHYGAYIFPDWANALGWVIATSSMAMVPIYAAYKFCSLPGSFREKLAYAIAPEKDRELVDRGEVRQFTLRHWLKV
Estrogen Erα, sequence (P03372 whole entry): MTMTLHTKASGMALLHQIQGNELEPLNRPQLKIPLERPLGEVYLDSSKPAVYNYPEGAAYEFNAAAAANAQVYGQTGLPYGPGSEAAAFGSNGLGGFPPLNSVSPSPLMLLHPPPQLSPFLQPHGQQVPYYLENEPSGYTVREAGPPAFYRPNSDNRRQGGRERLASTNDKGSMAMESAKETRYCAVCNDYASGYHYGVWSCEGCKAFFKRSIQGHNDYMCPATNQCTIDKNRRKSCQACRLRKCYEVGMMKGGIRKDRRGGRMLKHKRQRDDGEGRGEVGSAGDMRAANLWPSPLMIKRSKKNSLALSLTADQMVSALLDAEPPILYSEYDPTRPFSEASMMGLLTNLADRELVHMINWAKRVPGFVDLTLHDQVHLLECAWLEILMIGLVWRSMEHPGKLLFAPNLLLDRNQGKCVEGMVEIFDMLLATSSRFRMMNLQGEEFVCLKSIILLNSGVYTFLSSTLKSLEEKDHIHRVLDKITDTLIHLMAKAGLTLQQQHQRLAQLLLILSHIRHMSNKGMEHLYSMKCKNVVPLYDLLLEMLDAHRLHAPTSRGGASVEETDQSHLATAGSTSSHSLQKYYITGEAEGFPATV

In the case of `COc1ccc(C(=O)NCc2cc(C(C)C)no2)cc1OC1CCN(C)CC1` [ML352, N-((3-isopropylisoxazol-5-yl)methyl)-4-methoxy-3-((1-methylpiperidin-4-yl)oxy)benzamide], the “% inhibition” value [1] is reported as 20%, the “increase in steady-state hCHT surface expression” value [2] is reported as 43.4 ± 4.7 % of control and the inhibition at 10 µM [3] is reported as -9%. For the same molecule, the inhibition at 10 µM [4] was 6%, the inhibition at 10 µM [5] was -3% and the CLhep [6] was 40.3 mL/min/kg. The “% inhibition” value [7] was 3%, the inhibition at 10 µM [8] was -2% and the CLhep [9] was 6.9 mL/min/kg. The inhibition at 10 µM [10] was -7%, the inhibition at 10 µM [11] was 5% and the “% inhibition” value [12] was 16%. For the same molecule, the inhibition at 10 µM [13] was 2%, the “inhibitory activity at DAT” value [14] was “lack of inhibitory activity” and the inhibition at 10 µM [15] was 5%. The inhibition at 10 µM [16] was 16%, the inhibition at 10 µM [17] was 24% and the “% inhibition” value [18] was 1%. For the same molecule, the “inhibitory activity at SERT” value [19] was “lack of inhibitory activity”, the “inhibition of AChE” value [20] was “no ability; also recorded: lacks activity; also recorded: no inhibition” and the “% inhibition” value [21] was 5%. For the same molecule, the inhibition at 10 µM [22] was 23%, the inhibition at 10 µM [23] was 4% and the “% inhibition” value [24] was “–5%”. The “% inhibition” value [25] was 9%, the “% inhibition” value [26] was 4% and the IC50 [27] was greater than 30 µM. The inhibition at 10 µM [28] was 0%, the “% inhibition” value [29] was 1% and the inhibition at 10 µM [30] was 2%. The inhibition at 10 µM [31] was 3%, the inhibition at 10 µM [32] was 43% and the “% inhibition” value [33] was 6%. The inhibition at 10 µM [34] was -3%, the “inhibitory activity at NET” value [35] was “lack of inhibitory activity” and the inhibition at 10 µM [36] was 12%. For the same molecule, the IC50 [37] was greater than 30 µM and the inhibition at 10 µM [38] was 4%.
